Assay results published in publication PMC7047876, “Potent Chimeric Antimicrobial Derivatives of the Medicago truncatula NCR247 Symbiotic Peptide” (Frontiers in Microbiology, 2020).
Converted amounts (≈) assume the structure as drawn. Peptide text beside a SMILES is read from it.

Tests used:
Type in all cases: cell-based
[1] = system: Acinetobacter baumannii (ATCC 17978); experiment: microbe, parasite or virus in culture; settings: ATCC 17978, 3 h, pH 7.4; read-out: Minimal bactericidal concentration (MBC) A. b.
From the text: (§1) The pathogenic bacterial strains obtained from the ATCC (United States) and NCTC (National Collection of Type Cultures – England) were the Gram-positive: Enterococcus faecalis (ATCC 29212), Staphylococcus aureus (HNCMO112011), Listeria monocytogenes (ATCC 19111) and the Gram-negative: Pseudomonas aeruginosa (ATCC 27853), Escherichia coli (ATCC 8739), Salmonella enterica (ATCC 13076), Klebsiella pneumoniae (NCTC 13440), Acinetobacter baumannii (ATCC 17978).
(§2) Overnight bacterial cultures grown in LB were diluted and grown to OD600 = 0.2–0.6 at 37°C with shaking. After harvesting and washing bacteria in PPB, the suspensions were adjusted to OD600 = 0.1 corresponding to ∼10^7 bacteria/mL. Antimicrobial activity of the peptides and the antibiotics was determined in PPB in 96 well microplates using 10 μL bacterial suspension and 90 μL of the 2-fold serial dilutions of peptides or antibiotics. Peptides were tested from 25 μM to 0.125 μM whereas the antibiotics; carbenicillin (Cb) from Duchefa Biochemie (Prod.No. C0109.0025) and levofloxacin (Lvx) from Sigma-Aldrich (Prod.No. 28266-10MG-F) from […] to 0.1 μM. The microplates were incubated for 3 h at 37°C with 250 rpm shaking and then 5 μl from each sample was placed on LB agar and the growth of bacteria was monitored after overnight incubation at 37°C. The lowest concentration of the antimicrobial agents, which completely eliminated viable bacteria was the minimal bactericidal concentration (MBC).

[2] = system: Enterococcus faecalis (ATCC 29212); experiment: microbe, parasite or virus in culture; settings: ATCC 29212, 3 h, pH 7.4; read-out: Minimal bactericidal concentration (MBC) E. f.
From the text: as §1, §2

[3] = system: Escherichia coli (ATCC 8739); experiment: microbe, parasite or virus in culture; settings: ATCC 8739, 3 h, pH 7.4; read-out: Minimal bactericidal concentration (MBC) E. c.
From the text: as §1, §2

[4] = system: Klebsiella pneumoniae (NCTC 13440); experiment: microbe, parasite or virus in culture; settings: NCTC 13440, 3 h, pH 7.4; read-out: Minimal bactericidal concentration (MBC) K. p.
From the text: as §1, §2

[5] = system: Listeria monocytogenes (ATCC 19111); experiment: microbe, parasite or virus in culture; settings: ATCC 19111, 3 h, pH 7.4; read-out: Minimal bactericidal concentration (MBC) L. m.
From the text: as §1, §2

[6] = system: Pseudomonas aeruginosa (ATCC 27853); experiment: microbe, parasite or virus in culture; settings: ATCC 27853, 3 h, pH 7.4; read-out: Minimal bactericidal concentration (MBC) P. a.
From the text: as §1, §2

[7] = system: Salmonella enterica (ATCC 13076); experiment: microbe, parasite or virus in culture; settings: ATCC 13076, 3 h, pH 7.4; read-out: Minimal bactericidal concentration (MBC) S. e.
From the text: as §1, §2

[8] = system: Staphylococcus aureus (HNCMO112011); experiment: microbe, parasite or virus in culture; settings: HNCMO112011, 3 h, pH 7.4; read-out: Minimal bactericidal concentration (MBC) S. a.
From the text: as §1, §2

Acinetobacter baumannii = settings: for MBC in Mueller Hinton Broth, panel (A), A. b.: 3 h; for MBC in Mueller Hinton Broth, panel (B), A. b. / MIC in Mueller Hinton Broth, panel (C), A. b.: 20 h
From the text: as §1
(§3) Ca^2+ and Mg^2+ can inhibit the antimicrobial activity of cationic peptides, therefore the MBC and MIC values were also determined in MHB, which unlike PPB contains divalent cations and allows growth of bacteria. Bacteria were grown and prepared similarly except that bacteria were resuspended in MHB. 10 μl of bacteria OD600 = 0.1, supplemented with 45 μl MHB and 45 μl of 2-fold dilution series of peptides, were cultivated for 3 and 20 h at 37°C with shaking. Optical density of each sample was measured (Hidex Sense Microplate Reader with Plate Reader Software version 5064) and 5 μl was placed on LB agar plates after 3 and 20 h treatment. The minimal inhibitory concentration (MIC) corresponded to the lowest concentration, which inhibited growth.

Escherichia coli = settings: for MBC in Mueller Hinton Broth, panel (A), E. c.: 3 h; for MBC in Mueller Hinton Broth, panel (B), E. c. / MIC in Mueller Hinton Broth, panel (C), E. c.: 20 h
From the text: as §1, §3

Staphylococcus aureus = settings: for MBC in Mueller Hinton Broth, panel (A), S. a.: 3 h; for MBC in Mueller Hinton Broth, panel (B), S. a. / MIC in Mueller Hinton Broth, panel (C), S. a.: 20 h
From the text: as §1, §3

| Compound | MBC [1] [µM] | MBC [2] [µM] | MBC [3] [µM] | MBC [4] [µM] | MBC [5] [µM] | MBC [6] [µM] | MBC [7] [µM] | MBC [8] [µM] | MBC in Mueller Hinton Broth, panel (A), A. b. (Acinetobacter baumannii) [µM] | MBC in Mueller Hinton Broth, panel (B), A. b. (Acinetobacter baumannii) [µM] | MIC in Mueller Hinton Broth, panel (C), A. b. (Acinetobacter baumannii) [µM] | MBC in Mueller Hinton Broth, panel (A), E. c. (Escherichia coli) [µM] | MBC in Mueller Hinton Broth, panel (B), E. c. (Escherichia coli) [µM] | MIC in Mueller Hinton Broth, panel (C), E. c. (Escherichia coli) [µM] | MBC in Mueller Hinton Broth, panel (A), S. a. (Staphylococcus aureus) [µM] | MBC in Mueller Hinton Broth, panel (B), S. a. (Staphylococcus aureus) [µM] | MIC in Mueller Hinton Broth, panel (C), S. a. (Staphylococcus aureus) [µM] |
| --- | --- | --- | --- | --- | --- | --- | --- | --- | --- | --- | --- | --- | --- | --- | --- | --- | --- |
| CSCC[C@H](NC(=O)[C@H](CCCCN)NC(=O)[C@H](Cc1ccccc1)NC(=O)[C@H](CC(N)=O)NC(=O)[C@H](CC(C)C)NC(=O)[C@@H]1CCCN1C(=O)[C@@H](N)CCCNC(=N)N)C(=O)N[C@@H](CC(C)C)C(=O)N[C@@H](CCCNC(=N)N)C(=O)N[C@@H](Cc1ccccc1)C(=O)N[C@@H](Cc1c[nH]c2ccccc12)C(=O)NCC(=O)N[C@@H](CCC(N)=O)C(=O)N[C@@H](CCC(N)=O)C(=O)N[C@@H](CCC(N)=O)C(=O)N[C@@H](CS)C(=O)N[C@@H](CCCNC(=N)N)C(=O)N[C@@H](CCCNC(=N)N)C(=O)N1CCC[C@H]1C(=O)N[C@@H](CC(C)C)C(=O)N[C@@H](Cc1ccc(O)cc1)C(=O)N[C@@H](CS)C(=O)N[C@@H](CCCNC(=N)N)C(=O)N[C@@H](CCCNC(=N)N)C(=O)N[C@@H](CCCNC(=N)N)C(=O)N[C@@H](Cc1c[nH]c2ccccc12)C(=O)N[C@@H](CO)C(=O)N[C@@H](Cc1c[nH]cn1)C(=O)N1CCC[C@H]1C(=O)N[C@@H](CCC(N)=O)C(=O)N[C@@H](Cc1ccccc1)C(=O)N[C@@H](CCC(=O)O)C(=O)N[C@@H](CCCCN)C(N)=O [E, X1-NCR247C-StrepII] (H-RPLNFKMLRFWGQQQCRRPLYCRRRWSHPQFEK-NH2; N-terminus assumed) | 3.1 (≈ 13.5 µg/mL) | 12.5 (≈ 54.4 µg/mL) | 3.1 (≈ 13.5 µg/mL) | 6.3 (≈ 27.4 µg/mL) | 3.1 (≈ 13.5 µg/mL) | 3.1 (≈ 13.5 µg/mL) | 3.1 (≈ 13.5 µg/mL) | 3.1 (≈ 13.5 µg/mL) | 12.5 (≈ 54.4 µg/mL) | 6.3 (≈ 27.4 µg/mL) | 6.3 (≈ 27.4 µg/mL) | 25 (≈ 109 µg/mL) | 6.3 (≈ 27.4 µg/mL) | 6.3 (≈ 27.4 µg/mL) | 25 (≈ 109 µg/mL) | 6.3 (≈ 27.4 µg/mL) | 6.3 (≈ 27.4 µg/mL) |
| CC(C)C[C@H](NC(=O)[C@@H]1CCCN1C(=O)[C@H](CCCNC(=N)N)NC(=O)[C@H](CCCNC(=N)N)NC(=O)[C@H](CS)NC(=O)[C@H](CCC(N)=O)NC(=O)[C@@H](N)CCC(N)=O)C(=O)N[C@@H](Cc1ccc(O)cc1)C(=O)N[C@@H](CS)C(=O)N[C@@H](CCCNC(=N)N)C(=O)N[C@@H](CCCNC(=N)N)C(=O)N[C@@H](CCCNC(=N)N)C(=O)N[C@@H](Cc1c[nH]c2ccccc12)C(=O)N[C@@H](CO)C(=O)N[C@@H](Cc1c[nH]cn1)C(=O)N1CCC[C@H]1C(=O)N[C@@H](CCC(N)=O)C(=O)N[C@@H](Cc1ccccc1)C(=O)N[C@@H](CCC(=O)O)C(=O)N[C@@H](CCCCN)C(N)=O [C, NCR247C-StrepII] (H-QQCRRPLYCRRRWSHPQFEK-NH2; N-terminus assumed) | 25 (≈ 66.9 µg/mL) | >25 | 6.3 (≈ 16.8 µg/mL) | >25 | >25 | 6.3 (≈ 16.8 µg/mL) | >25 | 6.3 (≈ 16.8 µg/mL) | > 25 | >25 | >25 | > 25 | >25 | >25 | > 25 | >25 | >25 |
